One assay concerns the target IKKε (Homo sapiens (Human), UniProt Q14164). Put plainly: IKKε kinase assay (384-well flashplate assay). Format: biochemical. To be noted: 1 nM IKKε, 10 μM ATP, 30° C., 2 hours; read-out: IKKε enzyme assay IC50. Put shortly:
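Recombinant IKKε (1 nM) phosphorylates biotinylated IκBα(19-42) peptide (800 nM) with 10 μM ATP spiked with ^33P-ATP, 2 h at 30° C in MOPS buffer pH 7.5. Stopped with EDTA, captured on flashplate, radioactivity counted; nonspecific signal defined with 3 μM BX-795; IC50 derived.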

Assay [1] has as its system TBK1 + IKKε (phospho-IRF3 @ Ser 386, MDA-MB-468 cells). Put plainly: TBK1 + IKKε cell assay: dose response inhibition of phospho-IRF3 @ Ser 386 in MDA-MB-468 cells. Format: cell-based. To be noted: Homo sapiens, poly(I:C) stimulation, nuclear phospho-IRF3, read-out: TBK1 + IKKε cell assay IC50.
Experimental: Day 1: MDA-MB-468 cells are detached using HyQ-Tase, counted and sown into a 384-well plate with TC surface and clear bottom in a density of 10,000 cells per well in a total volume of 35 μl of complete medium. Alternatively, the cells are sown directly from frozen glass vials.
Day 2: The cells are pre-treated with inhibitor compounds for 1 h prior to poly(I:C) stimulation. After incubation for 2 h with poly(I:C), the cells are fixed in (para)formaldehyde (PFA) and permeabilised using methanol (MeOH). The cells are then blocked and incubated with an anti-pIRF3 antibody at 4° C. overnight.
Day 3: The primary antibody is washed off, an AlexaFluor488-conjugated secondary antibody is added, the cells are contrast-stained with propidium iodide, followed by image acquisition on an IMX ultra-high content reader.
For assay [2], the target named is TANK binding kinase (TBK1) (Homo sapiens (Human), UniProt Q9UHD2). Kind of assay: TBK1 enzyme assay (384-well flashplate kinase assay). To be noted: 0.6 nM TBK1, 10 μM ATP, 30° C., 120 min. The assay is classed as biochemical.
Chain of TANK binding kinase (TBK1) (Q9UHD2 whole entry): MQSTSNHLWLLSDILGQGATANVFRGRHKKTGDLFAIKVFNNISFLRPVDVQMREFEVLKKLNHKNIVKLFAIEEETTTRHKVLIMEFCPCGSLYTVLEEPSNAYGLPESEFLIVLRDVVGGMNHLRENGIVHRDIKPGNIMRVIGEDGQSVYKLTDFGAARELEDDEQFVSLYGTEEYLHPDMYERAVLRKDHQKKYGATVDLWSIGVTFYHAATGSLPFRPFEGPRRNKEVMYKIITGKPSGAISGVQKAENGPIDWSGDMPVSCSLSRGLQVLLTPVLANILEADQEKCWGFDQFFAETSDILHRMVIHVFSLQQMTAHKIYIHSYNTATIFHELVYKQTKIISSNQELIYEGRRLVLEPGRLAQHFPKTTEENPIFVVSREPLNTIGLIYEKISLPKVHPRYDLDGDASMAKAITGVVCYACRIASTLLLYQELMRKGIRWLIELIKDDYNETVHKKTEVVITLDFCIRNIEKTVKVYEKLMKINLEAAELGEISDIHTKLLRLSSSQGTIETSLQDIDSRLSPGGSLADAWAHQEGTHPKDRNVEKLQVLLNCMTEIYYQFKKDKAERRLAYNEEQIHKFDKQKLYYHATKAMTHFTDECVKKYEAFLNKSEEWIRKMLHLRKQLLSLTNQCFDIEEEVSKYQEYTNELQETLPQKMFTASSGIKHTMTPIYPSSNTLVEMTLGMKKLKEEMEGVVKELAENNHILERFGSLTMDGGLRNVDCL
Experimental: Test for the Inhibition of TBK1
The kinase assay is performed as 384-well flashplate assay (for example for Topcount measurement).
0.6 nM TANK binding kinase (TBK1), 800 nM biotinylated MELK-derived peptide (Biotin-Ah-Ah-[sequence]) and 10 μM ATP (spiked with 0.25 μCi of ^33P-ATP/well) are incubated at 30° C. for 120 min in a total volume of 50 μl (10 mM MOPS, 10 mM Mg acetate, 0.1 mM EGTA, 1 mM DTT, 0.02% of Brij35, 0.1% of BSA, pH 7.5) with or without test compound. The reaction is stopped with 25 μl of 200 mM EDTA. After 30 min at room temperature, the liquid is removed, and each well is washed three times with 100 μl of 0.9% sodium chloride solution. Non-specific reaction is measured in the presence of 100 nM staurosporine. The radioactivity is measured in a Topcount (PerkinElmer).

For 26 compounds, IC50 results are on record in US8969335B2, “Benzonitrile derivatives as kinase inhibitors” (MERCK PATENT GmbH, priority 2011, dated 2015).

Molecules are shown by their SMILES.

As a reminder, the IC50 is the concentration at which inhibition is half-maximal.

Chain of IKKε (Q14164 whole entry): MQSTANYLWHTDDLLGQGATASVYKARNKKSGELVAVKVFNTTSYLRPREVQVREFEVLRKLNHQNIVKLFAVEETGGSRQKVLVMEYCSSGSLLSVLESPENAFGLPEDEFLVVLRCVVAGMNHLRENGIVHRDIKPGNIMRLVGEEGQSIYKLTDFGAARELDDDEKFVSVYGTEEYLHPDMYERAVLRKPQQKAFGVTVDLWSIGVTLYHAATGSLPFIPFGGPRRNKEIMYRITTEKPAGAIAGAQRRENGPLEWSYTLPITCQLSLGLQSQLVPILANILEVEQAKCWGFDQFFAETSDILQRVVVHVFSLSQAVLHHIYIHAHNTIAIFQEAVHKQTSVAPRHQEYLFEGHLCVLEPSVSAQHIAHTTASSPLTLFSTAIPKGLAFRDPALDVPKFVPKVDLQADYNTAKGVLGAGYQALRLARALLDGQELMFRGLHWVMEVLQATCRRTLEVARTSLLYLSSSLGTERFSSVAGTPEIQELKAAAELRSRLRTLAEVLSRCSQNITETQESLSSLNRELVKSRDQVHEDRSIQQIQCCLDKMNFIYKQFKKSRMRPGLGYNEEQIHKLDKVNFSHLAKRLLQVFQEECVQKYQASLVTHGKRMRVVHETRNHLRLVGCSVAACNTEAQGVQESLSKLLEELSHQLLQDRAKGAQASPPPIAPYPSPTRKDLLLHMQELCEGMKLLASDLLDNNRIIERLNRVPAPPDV

Regarding `N#Cc1cc(-c2ccnc(Nc3cnn(CCO)c3)c2)ccc1OC1CCOCC1` [Compound A79, 5-{2-[1-(2-hydroxyethyl)-1H-pyrazol-4-ylamino]pyridin-4-yl}-2-(tetrahydropyran-4-yloxy)benzonitrile], the values for the IC50 (at IKKε; in assay [1]; in assay [2]) were 91 nM, 4900 nM and 120 nM, respectively.
`N#Cc1cc(-c2ccnc(Nc3ncc(C4CCNCC4)cn3)c2)ccc1OC1CCOCC1` [Compound A66, 5-[2-(5-piperidin-4-ylpyrimidin-2-ylamino)pyridin-4-yl]-2-(tetrahydropyran-4-yloxy)benzonitrile]: the figures for the IC50 (on IKKε; in assay [1]; in assay [2]) were 82 nM, 4900 nM and 100 nM, respectively.
On to `N#Cc1cc(-c2ccnc(Nc3cnn(C[C@H]4C[C@@H]4CO)c3)n2)ccc1OC1CCOCC1` [Compound A67, 5-{2-[1-((1S,2S)-2-hydroxymethylcyclopropylmethyl)-1H-pyrazol-4-ylamino]pyrimidin-4-yl}-2-(tetrahydropyran-4-yloxy)benzonitrile], for which the IC50 on IKKε was found to be 4 nM; in assay [1], 420 nM; in assay [2], 6 nM.
Regarding `N#Cc1cc(-c2ccnc(Nc3cnn(CC(F)F)c3)c2)ccc1OC1CCOCC1` [Compound A20, 5-{2-[1-(2,2-Difluoroethyl)-1H-pyrazol-4-ylamino]pyridin-4-yl}-2-(tetrahydropyran-4-yloxy)benzonitrile], the IC50 on IKKε was 51 nM; in assay [1], 4800 nM; in assay [2] it was 55 nM.
With `N#Cc1cc(-c2ccnc(Nc3ccc(N4CCOCC4)cn3)c2)ccc1OCC1CCC1` [Compound A113, 2-cyclobutylmethoxy-5-[2-(5-morpholin-4-ylpyridin-2-ylamino)pyridin-4-yl]benzonitrile], the IC50 at IKKε was 120 nM; in assay [1] it was 2900 nM; in assay [2] it was 54 nM.
For `N#Cc1cc(-c2ccnc(Nc3cnn(CCO)c3)n2)ccc1OC1CCOCC1` [Compound A75, 5-{2-[1-(2-hydroxyethyl)-1H-pyrazol-4-ylamino]pyrimidin-4-yl}-2-(tetrahydropyran-4-yloxy)benzonitrile], the IC50 at IKKε is 4 nM; in assay [1], 500 nM; in assay [2] it was 3 nM.
Taken in the same sequence, the figures for `N#Cc1cc(-c2ccnc(Nc3ccn(C4CCNCC4)n3)c2)ccc1OCC1CC1` [Compound A107, 2-cyclopropylmethoxy-5-[2-(1-piperidin-4-yl-1H-pyrazol-3-ylamino)pyridin-4-yl]benzonitrile] were 30 nM, 11000 nM and 50 nM.
Take `N#Cc1cc(-c2ccnc(Nc3cnn([C@H]4CC[C@@H](O)CC4)c3)n2)ccc1OCC1CCC1` [Compound A97, 2-cyclobutylmethoxy-5-{2-[1-(4-hydroxycyclohexyl)-1H-pyrazol-4-ylamino]-pyrimidin-4-yl}benzonitrile]: the IC50 on IKKε was 39 nM; in assay [1], 2100 nM; in assay [2], 11 nM.
The matching figures for `Cc1cc(Nc2nccc(-c3ccc(OC4CCOCC4)c(C#N)c3)n2)no1` [Compound A80, 5-[2-(5-methylisoxazol-3-ylamino)pyrimidin-4-yl]-2-(tetrahydropyran-4-yloxy)benzonitrile]: 210 nM, 13000 nM and 230 nM.
The matching figures for `N#Cc1cc(-c2ccnc(Nc3ccc(CN4CCOCC4)cn3)c2)ccc1OC1CCOCC1` [Compound A118, 5-[2-(5-morpholin-4-ylmethylpyridin-2-ylamino)pyridin-4-yl]-2-(tetrahydropyran-4-yloxy)benzonitrile]: 25 nM, 450 nM and 24 nM.
For the compound `N#Cc1cc(-c2ccnc(Nc3cnc(CO)cn3)c2)ccc1OC1CCOCC1` [Compound A99, 5-[2-(5-hydroxymethylpyrazin-2-ylamino)pyridin-4-yl]-2-(tetrahydropyran-4-yloxy)benzonitrile], the IC50 at IKKε was 8 nM; in assay [1], 320 nM; in assay [2], 6 nM.
For the compound `CN1CCC(c2ccnc(Nc3cc(-c4ccc(OC5CCOCC5)c(C#N)c4)ccn3)c2)CC1` [Compound A78, 5-[2-(1′-methyl-1′,2′,3′,4′,5′,6′-hexahydro-[4,4′]bipyridinyl-2-ylamino)pyridin-4-yl]-2-(tetrahydropyran-4-yloxy)benzonitrile], the IC50 amounted to 6 nM on IKKε, 2100 nM in assay [1] and 5 nM in assay [2].
As to `Cn1ccc(Nc2nccc(-c3ccc(OC4CCOCC4)c(C#N)c3)n2)n1` [Compound A33, 5-[2-(1-Methyl-1H-pyrazol-3-ylamino)pyrimidin-4-yl]-2-(tetrahydropyran-4-yloxy)benzonitrile], the IC50 at IKKε worked out at 58 nM; in assay [1] it was 5000 nM; in assay [2], 130 nM.
Take `N#Cc1cc(-c2ccnc(Nc3cnn([C@H]4CC[C@H](O)CC4)c3)n2)ccc1OC1CCOCC1` [Compound A101, 5-{2-[1-(4-hydroxycyclohexyl)-1H-pyrazol-4-ylamino]pyrimidin-4-yl}-2-(tetrahydropyran-4-yloxy)benzonitrile]: the IC50 on IKKε was 5 nM; in assay [1] it was 440 nM; in assay [2], 3 nM.
Take `N#Cc1cc(-c2ccnc(Nc3cccc(C4CCNCC4)n3)c2)ccc1OC1CCOCC1` [Compound A91, 5-[2-(1′,2′,3′,4′,5′,6′-hexahydro-[2,4′]bipyridinyl-6-ylamino)pyridin-4-yl]-2-(tetrahydropyran-4-yloxy)benzonitrile]: the figures for the IC50 (at IKKε; in assay [1]; in assay [2]) were 8 nM, 2300 nM and 32 nM, respectively.
Regarding `N#Cc1cc(-c2ccnc(Nc3ccc(C4CCNCC4)nn3)c2)ccc1OC1CCOCC1` [Compound A71, 5-[2-(6-piperidin-4-ylpyridazin-3-ylamino)pyridin-4-yl]-2-(tetrahydropyran-4-yloxy)benzonitrile], the values for the IC50 (on IKKε; in assay [1]; in assay [2]) were 6 nM, 2400 nM and 21 nM, respectively.
Turning to `N#Cc1cc(-c2ccnc(Nc3cnc(C4CCOCC4)cn3)c2)ccc1OC1CCOCC1` [Compound A98, 2-(tetrahydropyran-4-yloxy)-5-{2-[5-(tetrahydropyran-4-yl)pyrazin-2-yl-amino]pyridin-4-yl}benzonitrile], the IC50 on IKKε came out at 8 nM; in assay [1], 390 nM; in assay [2] it was 5 nM.
The matching figures for `Cn1ccc(Nc2cc(-c3ccc(OC4CCOCC4)c(C#N)c3)ccn2)n1` [Compound A5, 5-[2-(1-Methyl-1H-pyrazol-3-ylamino)pyridin-4-yl]-2-(tetrahydropyran-4-yloxy)benzonitrile]: 110 nM, 2900 nM and 97 nM.
On to `N#Cc1cc(-c2ccnc(Nc3cnn(CCC4CCN(C(=O)CO)CC4)c3)c2)ccc1OC1CCOCC1` [Compound A29, 5-[2-(1-{2-[1-(2-Hydroxyacetyl)piperidin-4-yl]ethyl}-1H-pyrazol-4-ylamino)pyridin-4-yl]-2-(tetrahydropyran-4-yloxy)benzonitrile], for which the results for the half-inhibitory concentration (IC50) (at IKKε; in assay [1]; in assay [2]) were 88 nM, 6700 nM and 120 nM, respectively.
Taken in the same sequence, the figures for `N#Cc1ccc(Nc2cc(-c3ccc(OC4CCOCC4)c(C#N)c3)ccn2)nc1` [Compound A11, 6-{4-[3-Cyano-4-(tetrahydropyran-4-yloxy)phenyl]pyridin-2-ylamino}nicotinonitrile] were 240 nM, 5200 nM and 250 nM.
On to `CC(C)(C)c1cc(Nc2cc(-c3ccc(OC4CCOCC4)c(C#N)c3)ccn2)n[nH]1` [Compound A10, 5-[2-(5-tert-Butyl-1H-pyrazol-3-ylamino)pyridin-4-yl]-2-(tetrahydropyran-4-yloxy)benzonitrile], for which the IC50 at IKKε came to 43 nM; in assay [1], 1200 nM; in assay [2], 21 nM.
With `N#Cc1cc(-c2ccnc(Nc3ccc(-c4cccnc4)cn3)c2)ccc1OC1CCOCC1` [Compound A3, 5-[2-([3,3′]Bipyridinyl-6-ylamino)pyridin-4-yl]-2-(tetrahydropyran-4-yloxy)benzonitrile], the IC50 is 370 nM at IKKε, 3300 nM in assay [1] and 260 nM in assay [2].
As to `N#Cc1cc(-c2ccnc(Nc3cnn([C@H]4CC[C@@H](O)CC4)c3)n2)ccc1OC1CCOCC1` [Compound A73, 5-{2-[1-(4-hydroxycyclohexyl)-1H-pyrazol-4-ylamino]pyrimidin-4-yl}-2-(tetrahydropyran-4-yloxy)benzonitrile], the results for the IC50 (at IKKε; in assay [1]; in assay [2]) were 10 nM, 270 nM and 8 nM, respectively.
As for `N#Cc1cc(-c2ccnc(Nc3cc(CN)ccn3)c2)ccc1OC1CCOCC1` [Compound A77, 5-[2-(4-aminomethyl-pyridin-2-ylamino)pyridin-4-yl]-2-(tetrahydropyran-4-yloxy)benzonitrile], the values for the IC50 (on IKKε; in assay [1]; in assay [2]) were 12 nM, 1400 nM and 30 nM, respectively.
The matching figures for `N#Cc1cc(-c2ccnc(Nc3cncc(C4CCNCC4)n3)c2)ccc1OC1CCOCC1` [Compound A96, 5-[2-(6-piperidin-4-ylpyrazin-2-ylamino)pyridin-4-yl]-2-(tetrahydropyran-4-yloxy)benzonitrile]: 40 nM, 5400 nM and 24 nM.
In the case of `Cc1cc(Nc2cc(-c3ccc(OC4CCOCC4)c(C#N)c3)ccn2)no1` [Compound A4, 5-[2-(5-Methylisoxazol-3-ylamino)pyridin-4-yl]-2-(tetrahydropyran-4-yloxy)benzonitrile], the IC50 was determined as 38 nM at IKKε, 6600 nM in assay [1] and 34 nM in assay [2].
